Assay results from US4209527A, “Benzimidazolone derivatives” (Pfizer Inc., priority 1979, dated 1980).
Where a name gives a salt, the structure may show the parent alone.

Biological target: T1, aldose reductase (Bos taurus, UniProt P16116)
T1 construct: partially purified aldose reductase enzyme obtained from calf lens; from tissue; host or cells: calf lens
Assay: inhibition of aldose reductase enzyme activity (procedure of S. Hayman et al., modified by K. Sestanj et al.)
Assay type: biochemical
Conditions: 10^-4 M; partially purified enzyme from calf lens
Description: The activity of the compounds of the present invention, as agents for the control of chronic diabetic complications, is determined by their ability to successfully pass one or more of the following standard biological and/or pharmacological tests, viz., (1) measuring their ability to inhibit the enzyme activity of isolated aldose reductase; (2) measuring their ability to reduce or inhibit sorbitol accumulation in the sciatic nerve of acutely streptozotocinized (i.e., diabetic) rats; (3) measuring their ability to reverse already-elevated sorbitol levels in the sciatic nerve and lens of chronic streptozotocin-induced diabetic rats; (4) measuring their ability to prevent or inhibit galactitol formation in the lens of acutely galactosemic rats and (5) measuring their ability to delay cataract formation and reduce the severity of lens opacities in chronic galactosemic rats.
The following 3-(substituted methyl)-2-oxo-1-benzimidazolinealkanoic acid final products of Examples 15-24 and 26-28, respectively, were tested at a concentration level of 10^-4 M for their ability to reduce or inhibit aldose reductase enzyme activity via the procedure of S. Hayman et al., as described in the Journal of Biological Chemistry, Vol. 240, p. 877 (1965) and as modified by K. Sestanj et al. in U.S. Pat. No. 3,821,383. In every case, the substrate employed was partially purified aldose reductase enzyme obtained from calf lens.

SMILES	inhibition at 100 µM
O=C(O)Cn1c(=O)n(Cc2ccccc2)c2ccccc21 [Example 15, 3-benzyl-2-oxo-1-benzimidazolineacetic acid]	84%
O=C(O)Cn1c(=O)n(Cc2cccc3ccccc23)c2ccccc21 [Example 21, 3-(α-naphthyl)methyl-2-oxo-1-benzimidazolineacetic acid]	92%
O=C(O)Cn1c(=O)n(Cc2ccc3ccccc3c2)c2ccccc21 [Example 22, 3-(β-naphthyl)methyl-2-oxo-1-benzimidazolineacetic acid]	86%
O=C(O)Cn1c(=O)n(CC(=O)c2ccc(Cl)cc2Cl)c2ccccc21 [Example 23, 3-(2,4-dichlorobenzoylmethyl)-2-oxo-1-benzimidazolineacetic acid]	71%
O=C(O)Cn1c(=O)n(Cc2ccc(Cl)c(Cl)c2)c2cc(Cl)c(Cl)cc21 [Example 26, 3-(3,4-dichlorobenzyl)-5,6-dichloro-2-oxo-1-benzimidazolineacetic acid]	82%

The remaining lines, values ahead:

inhibition at 100 µM	SMILES
86%	Cc1ccc(Cn2c(=O)n(CC(=O)O)c3ccccc32)cc1 [Example 16, 3-(p-xylyl)-2-oxo-1-benzimidazolineacetic acid]
88%	O=C(O)Cn1c(=O)n(Cc2ccc(Cl)cc2)c2ccccc21 [Example 17, 3-(p-chlorobenzyl)-2-oxo-1-benzimidazolineacetic acid]
88%	COc1ccc(Cn2c(=O)n(CC(=O)O)c3ccccc32)cc1 [Example 18, 3-(p-methoxybenzyl)-2-oxo-1-benzimidazolineacetic acid]
89%	O=C(O)Cn1c(=O)n(Cc2ccc(Cl)c(Cl)c2)c2ccccc21 [Example 19, 3-(3,4-dichlorobenzyl)-2-oxo-1-benzimidazolineacetic acid]
87%	O=C(O)Cn1c(=O)n(Cc2ccc(Cl)cc2Cl)c2ccccc21 [Example 20, 3-(2,4-dichlorobenzyl)-2-oxo-1-benzimidazolelineacetic acid]
89%	O=C(O)Cn1c(=O)n(Cc2ccccc2)c2cc(Cl)c(Cl)cc21 [Example 24, 3-benzyl-5,6-dichloro-2-oxo-1-benzimidazolineacetic acid]
91%	CC(C(=O)O)n1c(=O)n(Cc2ccc(Cl)c(Cl)c2)c2ccccc21 (stereo not drawn) [Example 27, α-[3-(3,4-dichlorobenzyl)-2-oxo-1-benzimidazoline]propionic acid]
90%	O=C(O)CCn1c(=O)n(Cc2ccc(Cl)c(Cl)c2)c2ccccc21 [Example 28, β-[3-(3,4-dichlorobenzyl)-2-oxo-1-benzimidazoline]propionic acid]

System: not listed separately
Assay: toxic side effects / untoward pharmacological side reactions
Assay type: in vivo, rat
Conditions: diabetic rats, oral, 2.5 mg./kg. to 25 mg./kg.
Source text: As previously indicated, the 3-(substituted methyl)-2-oxo-1-benzimidazolinealkanoic acid final products of this invention are all readily adapted to therapeutic use as aldose reductase inhibitors for the control of chronic diabetic complications, in view of their ability to reduce lens sorbitol levels in diabetic subjects to a statistically significant degree. […] Furthermore, the herein described compounds of this invention can be administered by either the oral or parenteral routes of administration, for the present purposes at hand, without causing any significant untoward pharmacological side reactions to occur in the subject to whom they are so administered. In general, these compounds are ordinarily administered in dosages ranging from about 0.25 mg. to about 25 mg. per kg. of body weight per day, although variations will necessarily occur depending upon the weight and condition of the subject being treated and the particular route of administration chosen.

SMILES	signs of toxic side effects
O=C(O)Cn1c(=O)n(Cc2ccccc2)c2ccccc21 [Example 15, 3-benzyl-2-oxo-1-benzimidazolineacetic acid]	without showing any substantial signs of toxic side effects

System: not listed separately
Assay: solubility in water
Assay type: physicochemical
Conditions: amorphous powder, freeze-dried
Description: The sodium salt of 3-benzyl-2-oxo-1-benzimidazolineacetic acid is prepared by dissolving said compound in water containing an equivalent amount in moles of sodium hydroxide and then freeze-drying the mixture.

SMILES	solubility in water
O=C(O)Cn1c(=O)n(Cc2ccccc2)c2ccccc21 [Example 35, sodium salt of 3-benzyl-2-oxo-1-benzimidazolineacetic acid]	freely-soluble in water
